Measurements reported in patent publication US10004701B2, “Methods and compositions for treating infection” (UNIVERSITY OF ROCHESTER, priority 2012, dated 2018).
Counter-ions that a name gives are not always drawn. Like-named read-outs stand apart in the source and are kept apart here.

What was measured:
Test in all cases: AK assay 384-well format, Prestwick library screening
[1] = test system: P. aeruginosa; assay type: cell-based, Pseudomonas aeruginosa; details: Pseudomonas aeruginosa, 3 h, 50 μM final drug concentration
[2] = test system: E. faecium; assay type: cell-based, Enterococcus faecium; details: Enterococcus faecium, 3 h, 50 μM final drug concentration
[3] = test system: K. pneumoniae; assay type: cell-based, Klebsiella pneumoniae; details: Klebsiella pneumoniae, 3 h, 50 μM final drug concentration
[4] = test system: E. cloacae; assay type: cell-based, Enterobacter cloacae; details: Enterobacter cloacae, 3 h, 50 μM final drug concentration
[5] = test system: A. baumannii strain 98-37-09; assay type: cell-based, Acinetobacter baumannii; details: Acinetobacter baumannii, 983709, 3 h, 50 μM final drug concentration
[6] = test system: E. coli; assay type: cell-based, Escherichia coli; details: Escherichia coli, 3 h, 50 μM final drug concentration
[7] = test system: S. aureus strain USA300-0114; assay type: cell-based, Staphylococcus aureus; details: Staphylococcus aureus, USA300, 3 h, 50 μM final drug concentration
[8] = planktonic, cutoff for positive 3-fold increase, read-out: AK-based Prestwick Library Screening Results, P. aeruginosa (fold increase in extracellular AK activity)
[9] = planktonic, cutoff for positive 3-fold increase, read-out: AK-based Prestwick Library Screening Results, E. faecium (fold increase in extracellular AK activity)
[10] = planktonic, cutoff for positive 3-fold increase, read-out: AK-based Prestwick Library Screening Results, K. pneumoniae (fold increase in extracellular AK activity)
[11] = planktonic, cutoff for positive 3-fold increase, read-out: AK-based Prestwick Library Screening Results, E. cloacae (fold increase in extracellular AK activity)
[12] = planktonic, cutoff for positive 3-fold increase, read-out: AK-based Prestwick Library Screening Results, A. baumannii (fold increase in extracellular AK activity)
[13] = planktonic, cutoff for positive 3-fold increase, read-out: AK-based Prestwick Library Screening Results, S. aureus (fold increase in extracellular AK activity)
[14] = planktonic P. aeruginosa, cutoff for positive-scoring molecules 3-fold increase, read-out: AK-based Prestwick Library Screening Results, P. aeruginosa (increase in extracellular AK activity)
[15] = planktonic E. faecium, cutoff for positive-scoring molecules 3-fold increase, read-out: AK-based Prestwick Library Screening Results, E. faecium (increase in extracellular AK activity)
[16] = planktonic K. pneumoniae, cutoff for positive-scoring molecules 3-fold increase, read-out: AK-based Prestwick Library Screening Results, K. pneumoniae (increase in extracellular AK activity)
[17] = planktonic E. cloacae, cutoff for positive-scoring molecules 3-fold increase, read-out: AK-based Prestwick Library Screening Results, E. cloacae (increase in extracellular AK activity)
[18] = planktonic A. baumannii, cutoff for positive-scoring molecules 3-fold increase, read-out: AK-based Prestwick Library Screening Results, A. baumannii (increase in extracellular AK activity)
[19] = planktonic E. coli, cutoff for positive-scoring molecules 3-fold increase, read-out: AK-based Prestwick Library Screening Results, E. coli (increase in extracellular AK activity)
[20] = planktonic S. aureus, cutoff for positive-scoring molecules 3-fold increase, read-out: AK-based Prestwick Library Screening Results, S. aureus (increase in extracellular AK activity)
[21] = planktonic P. aeruginosa, 384-well, cutoff for positive-scoring molecules 3-fold increase, read-out: AK-based Prestwick Library Screening Results: P. aeruginosa (increase in extracellular AK activity)
[22] = planktonic E. faecium, 384-well, cutoff for positive-scoring molecules 3-fold increase, read-out: AK-based Prestwick Library Screening Results: E. faecium (increase in extracellular AK activity)
[23] = planktonic K. pneumoniae, 384-well, cutoff for positive-scoring molecules 3-fold increase, read-out: AK-based Prestwick Library Screening Results: K. pneumoniae (increase in extracellular AK activity)
[24] = planktonic E. cloacae, 384-well, cutoff for positive-scoring molecules 3-fold increase, read-out: AK-based Prestwick Library Screening Results: E. cloacae (increase in extracellular AK activity)
[25] = planktonic A. baumannii, 384-well, cutoff for positive-scoring molecules 3-fold increase, read-out: AK-based Prestwick Library Screening Results: A. baumannii (increase in extracellular AK activity)
[26] = planktonic E. coli, 384-well, cutoff for positive-scoring molecules 3-fold increase, read-out: AK-based Prestwick Library Screening Results: E. coli (increase in extracellular AK activity)
[27] = planktonic S. aureus, 384-well, cutoff for positive-scoring molecules 3-fold increase, read-out: AK-based Prestwick Library Screening Results: S. aureus (increase in extracellular AK activity)

COP(=O)(OC)C(O)C(Cl)(Cl)Cl (stereo not shown) [Trichlorfon]
fold induction at 50 µM ([1]; planktonic P. aeruginosa, 384-well, […], read-out: AK-based Prestwick Library Screening Results: P. aeruginosa (increase in extracellular AK activity)): 1 | fold induction at 50 µM ([2]; planktonic E. faecium, 384-well, […], read-out: AK-based Prestwick Library Screening Results: E. faecium (increase in extracellular AK activity)): 0.8 | fold induction at 50 µM ([3]; planktonic K. pneumoniae, 384-well, […], read-out: AK-based Prestwick Library Screening Results: K. pneumoniae (increase in extracellular AK activity)): 1.1 | fold induction at 50 µM ([4]; planktonic E. cloacae, 384-well, […], read-out: AK-based Prestwick Library Screening Results: E. cloacae (increase in extracellular AK activity)): 1.5 | fold induction at 50 µM ([5]; planktonic A. baumannii, 384-well, […], read-out: AK-based Prestwick Library Screening Results: A. baumannii (increase in extracellular AK activity)): 0.9 | fold induction at 50 µM ([6]; planktonic E. coli, 384-well, […], read-out: AK-based Prestwick Library Screening Results: E. coli (increase in extracellular AK activity)): 1.2 | fold induction at 50 µM ([7]; planktonic S. aureus, 384-well, […], read-out: AK-based Prestwick Library Screening Results: S. aureus (increase in extracellular AK activity)): 1.1

Cc1onc(-c2c(Cl)cccc2Cl)c1C(=O)N[C@@H]1C(=O)N2[C@@H]1SC(C)(C)[C@@H]2C(=O)O [Dicloxacillin sodium salt]
fold induction at 50 µM [1, 8]: 1.4 | fold induction at 50 µM [2, 9]: 1 | fold induction at 50 µM [3, 10]: 0.9 | fold induction at 50 µM [4, 11]: 1.2 | fold induction at 50 µM [5, 12]: 1.5 | fold induction at 50 µM ([6]; planktonic, cutoff for positive 3-fold increase, read-out: AK-based Prestwick Library Screening Results, E. coli (fold increase in extracellular AK activity)): 1.2 | fold induction at 50 µM [7, 13]: 7.1

OCc1cc(C(O)CNCCCCCCOCCCCc2ccccc2)ccc1O (stereo not shown) [Salmeterol]
fold induction at 50 µM ([1]; cutoff for positive-scoring molecules 3-fold increase, read-out: AK-based Prestwick Library Screening Results, P. aeruginosa (fold increase in extracellular AK activity)): 1.2 | fold induction at 50 µM ([2]; cutoff for positive-scoring molecules 3-fold increase, read-out: AK-based Prestwick Library Screening Results, E. faecium (fold increase in extracellular AK activity)): 1 | fold induction at 50 µM ([3]; cutoff for positive-scoring molecules 3-fold increase, read-out: AK-based Prestwick Library Screening Results, K. pneumoniae (fold increase in extracellular AK activity)): 1.1 | fold induction at 50 µM ([4]; cutoff for positive-scoring molecules 3-fold increase, read-out: AK-based Prestwick Library Screening Results, E. cloacae (fold increase in extracellular AK activity)): 1.5 | fold induction at 50 µM ([5]; cutoff for positive-scoring molecules 3-fold increase, read-out: AK-based Prestwick Library Screening Results, A. baumannii (fold increase in extracellular AK activity)): 1.5 | fold induction at 50 µM ([6]; cutoff for positive-scoring molecules 3-fold increase, read-out: AK-based Prestwick Library Screening Results, E. coli (fold increase in extracellular AK activity)): 1.4 | fold induction at 50 µM ([7]; cutoff for positive-scoring molecules 3-fold increase, read-out: AK-based Prestwick Library Screening Results, S. aureus (fold increase in extracellular AK activity)): 1.9

C#C[C@]1(O)CC[C@H]2[C@@H]3CCC4=CC(=O)CC[C@@H]4[C@H]3CC[C@@]21C [Norethindrone]
fold induction at 50 µM ([1]; 384-well format, cutoff for positive-scoring molecules 3-fold increase, read-out: AK-based Prestwick Library Screening Results, P. aeruginosa (increase in extracellular AK activity)): 0.8 | fold induction at 50 µM ([2]; 384-well format, cutoff for positive-scoring molecules 3-fold increase, read-out: AK-based Prestwick Library Screening Results, E. faecium (increase in extracellular AK activity)): 1 | fold induction at 50 µM ([3]; 384-well format, cutoff for positive-scoring molecules 3-fold increase, read-out: AK-based Prestwick Library Screening Results, K. pneumoniae (increase in extracellular AK activity)): 0.7 | fold induction at 50 µM ([4]; 384-well format, cutoff for positive-scoring molecules 3-fold increase, read-out: AK-based Prestwick Library Screening Results, E. cloacae (increase in extracellular AK activity)): 0.9 | fold induction at 50 µM ([5]; 384-well format, cutoff for positive-scoring molecules 3-fold increase, read-out: AK-based Prestwick Library Screening Results, A. baumannii (increase in extracellular AK activity)): 0.7 | fold induction at 50 µM ([6]; 384-well format, cutoff for positive-scoring molecules 3-fold increase, read-out: AK-based Prestwick Library Screening Results, E. coli (increase in extracellular AK activity)): 0.7 | fold induction at 50 µM ([7]; 384-well format, cutoff for positive-scoring molecules 3-fold increase, read-out: AK-based Prestwick Library Screening Results, S. aureus (increase in extracellular AK activity)): 0.8

N=C(N)NC(=O)Cc1c(Cl)cccc1Cl [Guanfacine hydrochloride]
fold induction at 50 µM [1, 14]: 0.7 | fold induction at 50 µM [2, 15]: 1.1 | fold induction at 50 µM [3, 16]: 0.5 | fold induction at 50 µM [4, 17]: 0.9 | fold induction at 50 µM [5, 18]: 0.7 | fold induction at 50 µM [6, 19]: 0.8 | fold induction at 50 µM [7, 20]: 0.6

COc1ccc2c(c1OC)C(=O)O[C@@H]2[C@H]1c2c(cc3c(c2OC)OCO3)CCN1C [Noscapine]
fold induction at 50 µM [1, 21]: 0.5 | fold induction at 50 µM [2, 22]: 0.9 | fold induction at 50 µM [3, 23]: 0.5 | fold induction at 50 µM [4, 24]: 0.6 | fold induction at 50 µM [5, 25]: 0.6 | fold induction at 50 µM [6, 26]: 0.6 | fold induction at 50 µM [7, 27]: 0.5

O=C(CCCN1CC=C(n2c(=O)[nH]c3ccccc32)CC1)c1ccc(F)cc1 [Droperidol]
fold induction at 50 µM [1, 14]: 0.7 | fold induction at 50 µM [2, 15]: 1 | fold induction at 50 µM [3, 16]: 0.7 | fold induction at 50 µM [4, 17]: 1.2 | fold induction at 50 µM [5, 18]: 1 | fold induction at 50 µM [6, 19]: 0.9 | fold induction at 50 µM [7, 20]: 0.9

O=C1C(CC[S+]([O-])c2ccccc2)C(=O)N(c2ccccc2)N1c1ccccc1 (stereo not shown) [Sulfinpyrazone]
fold induction at 50 µM [1, 21]: 1 | fold induction at 50 µM [2, 22]: 1.1 | fold induction at 50 µM [3, 23]: 1 | fold induction at 50 µM [4, 24]: 1.2 | fold induction at 50 µM [5, 25]: 1.2 | fold induction at 50 µM [6, 26]: 1.3 | fold induction at 50 µM [7, 27]: 3.5

CCCCc1oc2ccccc2c1C(=O)c1cc(I)c(OCCN(CC)CC)c(I)c1 [Amiodarone hydrochloride]
fold induction at 50 µM [1, 21]: 0.5 | fold induction at 50 µM [2, 22]: 1.7 | fold induction at 50 µM [3, 23]: 0.6 | fold induction at 50 µM [4, 24]: 0.5 | fold induction at 50 µM [5, 25]: 2.2 | fold induction at 50 µM [6, 26]: 0.7 | fold induction at 50 µM [7, 27]: 0.7

COc1cc([C@@H]2c3cc4c(cc3[C@@H](O[C@@H]3O[C@@H]5CO[C@@H](C)O[C@H]5[C@H](O)[C@H]3O)[C@H]3COC(=O)[C@H]23)OCO4)cc(OC)c1O [Etoposide]
fold induction at 50 µM [1, 8]: 1 | fold induction at 50 µM [2, 9]: 1.1 | fold induction at 50 µM [3, 10]: 1 | fold induction at 50 µM [4, 11]: 1.4 | fold induction at 50 µM [5, 12]: 1.2 | fold induction at 50 µM ([6]; planktonic, […], read-out: AK-based Prestwick Library Screening Results, E. coli (fold increase in extracellular AK activity)): 1.2 | fold induction at 50 µM [7, 13]: 1.4
